Reference: ChEMBL document CHEMBL1201862, “PubChem BioAssay data set” (2004)
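Dose response: 5 concentrations. Exposure: 48 h. Format: 96-well plates. Endpoint: linear interpolation; highest concentration if not reached. GI50 is the concentration that inhibits growth by half.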 Calls of active or inactive are those of the source. Rule as the data show it: active = GI50 up to about 1.1 µM and inactive = higher.

Tests used:
Experiment in all cases: DTP human tumour cell line panel, 48 h
SN12C = tested on: SN12C
IGROV-1 = tested on: IGROV-1
M14 = tested on: M14
UACC-257 = tested on: UACC-257
SK-OV-3 = tested on: SK-OV-3
SF-539 = tested on: SF-539
SNB-75 = tested on: SNB-75
K562 = tested on: K562
HOP-62 = tested on: HOP-62
NCI-H460 = tested on: NCI-H460
HCT-116 = tested on: HCT-116
A498 = tested on: A498
HOP-92 = tested on: HOP-92
OVCAR-5 = tested on: OVCAR-5
NCI-H23 = tested on: NCI-H23
MDA-MB-435 = tested on: MDA-MB-435
RPMI-8226 = tested on: RPMI-8226
UO-31 = tested on: UO-31
NCI/ADR-RES = tested on: NCI/ADR-RES
DU-145 = tested on: DU-145

Compound	GI50 (SN12C)	GI50 (IGROV-1)	GI50 (M14)	GI50 (UACC-257)	GI50 (SK-OV-3)	GI50 (SF-539)	GI50 (SNB-75)	GI50 (K562)	GI50 (HOP-62)	GI50 (NCI-H460)	GI50 (HCT-116)	GI50 (A498)	GI50 (HOP-92)	GI50 (OVCAR-5)	GI50 (NCI-H23)	GI50 (MDA-MB-435)	GI50 (RPMI-8226)	GI50 (UO-31)	GI50 (NCI/ADR-RES)	GI50 (DU-145)
N#C/N=N/c1cc(Cl)c(/N=N/C#N)cc1Cl	> 100 µM (inactive)	> 100 µM (inactive)	> 100 µM (inactive)	> 100 µM (inactive)	> 100 µM (inactive)	> 100 µM (inactive)	51.9 µM (inactive)	27.1 µM (inactive)	> 100 µM (inactive)	> 100 µM (inactive)	> 100 µM (inactive)	> 100 µM (inactive)	> 100 µM (inactive)	> 100 µM (inactive)	> 100 µM (inactive)					
CN(C)CCCn1c(-c2cc(C(C)(C)C)c(O)c(C(C)(C)C)c2)cs/c1=N\c1ccccc1	2.08 µM (inactive)		1.72 µM (inactive)	1.47 µM (inactive)	1.96 µM (inactive)	1.75 µM (inactive)	3.88 µM (inactive)		1.89 µM (inactive)	2.35 µM (inactive)		1.94 µM (inactive)	2.26 µM (inactive)	2.23 µM (inactive)	1.68 µM (inactive)	2.34 µM (inactive)	1.4 µM (inactive)	1.97 µM (inactive)	1.79 µM (inactive)	
CN(C)CCNC(=O)c1cccc2ccc(-c3ccc(F)cc3)nc12	4.85 µM (inactive)	4.16 µM (inactive)		5.51 µM (inactive)	7.62 µM (inactive)	4.06 µM (inactive)	6.95 µM (inactive)	2.93 µM (inactive)	11.7 µM (inactive)	2.86 µM (inactive)	3.03 µM (inactive)	7.1 µM (inactive)	4.25 µM (inactive)	7.55 µM (inactive)	4.47 µM (inactive)		3.31 µM (inactive)	2.61 µM (inactive)	3.18 µM (inactive)	
O=C(NN1C(=O)CS(=O)(=O)C1c1ccc(Cl)c(Cl)c1)c1ccncc1 (centres undefined)	> 100 µM (inactive)	> 100 µM (inactive)		> 100 µM (inactive)	57.5 µM (inactive)	> 100 µM (inactive)	54.2 µM (inactive)	> 54.2 µM (inactive)	> 100 µM (inactive)	> 100 µM (inactive)	> 87.7 µM (inactive)	> 90.4 µM (inactive)	> 100 µM (inactive)	> 62.2 µM (inactive)	> 100 µM (inactive)		> 41.7 µM (inactive)	> 100 µM (inactive)	> 92.7 µM (inactive)	
CC(=O)OC(OC(C)=O)n1cc(C=O)c2ccccc21	> 100 µM (inactive)	> 10 µM (inactive)	> 100 µM (inactive)	> 100 µM (inactive)	> 100 µM (inactive)		> 10 µM (inactive)	> 100 µM (inactive)	> 100 µM (inactive)	> 100 µM (inactive)	> 100 µM (inactive)	36.7 µM (inactive)		> 100 µM (inactive)	> 100 µM (inactive)		> 100 µM (inactive)	63.5 µM (inactive)	> 100 µM (inactive)	> 100 µM (inactive)
O=[N+]([O-])c1ccc2[nH]c3c(-c4ccccc4)nccc3c2c1	25.1 µM (inactive)	7.03 µM (inactive)		30 µM (inactive)	12.9 µM (inactive)	63 µM (inactive)	11.7 µM (inactive)	1.71 µM (inactive)	14.7 µM (inactive)	14.4 µM (inactive)	17.1 µM (inactive)	82.6 µM (inactive)	16.3 µM (inactive)	67.8 µM (inactive)	32.1 µM (inactive)		0.796 µM (active)	4.41 µM (inactive)	16 µM (inactive)	
CN(/N=C1\C(=O)Nc2ccccc21)c1ccccc1		36.6 µM (inactive)	74.6 µM (inactive)	> 100 µM (inactive)	> 100 µM (inactive)	41.2 µM (inactive)	2.32 µM (inactive)	> 100 µM (inactive)	49.7 µM (inactive)	91.8 µM (inactive)	57.8 µM (inactive)	> 100 µM (inactive)	22.5 µM (inactive)	45.6 µM (inactive)	74.6 µM (inactive)	> 100 µM (inactive)	74.3 µM (inactive)	11.8 µM (inactive)		> 100 µM (inactive)
CC(=O)Nc1ccc(C2[C@H]3C(=O)N(c4ccc(Cc5ccc(N6C(=O)[C@@H]7ON(c8ccccc8)C(c8ccc(NC(C)=O)cc8)[C@@H]7C6=O)cc5)cc4)C(=O)[C@H]3ON2c2ccccc2)cc1 (some centres undefined)	> 100 µM (inactive)	> 100 µM (inactive)	25.2 µM (inactive)	> 100 µM (inactive)	> 100 µM (inactive)	> 100 µM (inactive)	> 100 µM (inactive)	> 100 µM (inactive)	> 100 µM (inactive)	> 100 µM (inactive)	> 100 µM (inactive)	> 100 µM (inactive)		> 100 µM (inactive)	> 100 µM (inactive)		> 100 µM (inactive)	> 100 µM (inactive)		
O=c1[nH]c(=O)n(C2CC(O)C(CO)O2)cc1C(OCC(F)(F)F)OCC(F)(F)F (centres undefined)	> 100 µM (inactive)	> 100 µM (inactive)	> 100 µM (inactive)	> 100 µM (inactive)	> 100 µM (inactive)	> 100 µM (inactive)	> 100 µM (inactive)	53.3 µM (inactive)	> 100 µM (inactive)	> 100 µM (inactive)		> 100 µM (inactive)	> 100 µM (inactive)	> 100 µM (inactive)	> 100 µM (inactive)		> 100 µM (inactive)	> 100 µM (inactive)		
C[Si](C)(C)/C=C/CN1C(=O)CCC1=O	> 100 µM (inactive)	> 100 µM (inactive)	> 100 µM (inactive)		> 100 µM (inactive)	> 100 µM (inactive)	83.2 µM (inactive)	> 100 µM (inactive)		> 100 µM (inactive)	> 100 µM (inactive)	> 100 µM (inactive)	> 100 µM (inactive)	> 100 µM (inactive)	> 100 µM (inactive)		> 100 µM (inactive)	> 100 µM (inactive)		
COc1c(Br)cc(CC(N)=O)c(O)c1Br	> 100 µM (inactive)	> 100 µM (inactive)		> 100 µM (inactive)	> 100 µM (inactive)	> 100 µM (inactive)	> 100 µM (inactive)	> 100 µM (inactive)	> 100 µM (inactive)		> 100 µM (inactive)	> 100 µM (inactive)	> 100 µM (inactive)	> 100 µM (inactive)	> 100 µM (inactive)			> 100 µM (inactive)		
COc1nc(SC)nc2c1cnn2C1OC(C(O)CO)C(OC)C1O (centres undefined)	> 100 µM (inactive)	> 100 µM (inactive)		> 75.7 µM (inactive)	> 100 µM (inactive)	> 100 µM (inactive)	48.4 µM (inactive)	> 100 µM (inactive)	> 100 µM (inactive)	74.6 µM (inactive)	78.2 µM (inactive)	> 100 µM (inactive)		> 100 µM (inactive)	> 100 µM (inactive)		63.8 µM (inactive)	34.9 µM (inactive)	> 100 µM (inactive)	
CC(=O)C1CC[C@@H]2[C@H](CC[C@]3(C)[C@@H](O)CC[C@@H]23)[C@H]1C(=O)O (some centres undefined)		> 100 µM (inactive)	> 100 µM (inactive)	> 100 µM (inactive)	> 100 µM (inactive)	> 100 µM (inactive)		> 100 µM (inactive)	> 100 µM (inactive)	> 100 µM (inactive)		> 100 µM (inactive)	> 100 µM (inactive)	> 100 µM (inactive)	> 100 µM (inactive)	> 100 µM (inactive)	> 100 µM (inactive)	> 100 µM (inactive)	> 100 µM (inactive)	
COc1cc(C2C(C(=O)O)=C(CO)Oc3cc4c(cc32)OCO4)cc(OC)c1O (centres undefined)	> 100 µM (inactive)	> 100 µM (inactive)	> 100 µM (inactive)	> 100 µM (inactive)	> 100 µM (inactive)	> 100 µM (inactive)	> 100 µM (inactive)	> 100 µM (inactive)	> 100 µM (inactive)	> 100 µM (inactive)	> 100 µM (inactive)		> 100 µM (inactive)				> 100 µM (inactive)	> 100 µM (inactive)		
O=C(CSc1nnc(Cc2ccccc2)o1)Nc1ccc(Cl)cc1[N+](=O)[O-]	17.5 µM (inactive)		16.5 µM (inactive)	19.9 µM (inactive)	34.5 µM (inactive)		18.9 µM (inactive)	25.6 µM (inactive)	17.4 µM (inactive)	> 10 µM (inactive)	14 µM (inactive)				17.4 µM (inactive)		17.9 µM (inactive)	18.4 µM (inactive)		
CC1(C)OP23(NC(=O)OC2(C(F)(F)F)c2ccccc2O3)OC1(C)C (centres undefined)	> 100 µM (inactive)		> 100 µM (inactive)	> 100 µM (inactive)	> 100 µM (inactive)	> 100 µM (inactive)	> 100 µM (inactive)	> 100 µM (inactive)		> 100 µM (inactive)	> 100 µM (inactive)				> 100 µM (inactive)			> 100 µM (inactive)		
C/C(=N\NC(=S)N1CCCCCC1)c1nccnc1C	0.285 µM (active)	< 0.01 µM (active)	< 0.01 µM (active)	< 0.01 µM (active)		0.242 µM (active)	0.605 µM (active)	0.055 µM (active)	35.3 µM (inactive)			1.58 µM (inactive)		0.169 µM (active)	< 0.01 µM (active)		0.159 µM (active)			
